Data: patent US11529363B2, “Methods of treating cancer in pediatric patients” (ARIAD Pharmaceuticals, Inc., priority 2018, dated 2022)

Columns and labels:
ALK+ NSCLC = assay: phase 2 study AP26113-13-201 (ALTA trial) in adult patients with ALK+ NSCLC refractory to crizotinib; type: in vivo, human
Experimental: In the pivotal phase 2 study in adults with ALK+ NSCLC, 2 dose regimens were evaluated: (1) 90 mg QD; (2) 90 mg QD in Week 1 followed by escalation to 180 mg QD for those patients tolerating the 7-day 90 mg QD lead in. […] To mitigate the risk for EOPEs in pediatric patients, the doses of brigatinib selected for Week 1 of treatment are informed by adult clinical experience and designed to achieve systemic exposures not exceeding those at the 90 mg daily dose in adults.

[1] = cross-study comparison of brigatinib exposure, oral solution (AP26113-13-104) vs tablet (AP26113-16-110); type: in vivo, human
[2] = first-in-human Study AP26113-11-101, tolerated dose in adults
Experimental: One additional dose level is planned if the 40 mg/m^2 QD→80 mg/m^2 QD dose is tolerated.

ALK = ALK (Homo sapiens, UniProt Q9UM73); conditions: in vitro studies; cited from earlier work
[3] = system: secondary ALK mutants of EML4-ALK; conditions: at relevant levels of exposure achieved in patients; cited from earlier work
[4] = pediatric, 280 mg/m^2; cited from earlier work
[5] = 90→180 mg QD, adult ALK+ NSCLC refractory to crizotinib

Sequence of ALK (Q9UM73 19-1620): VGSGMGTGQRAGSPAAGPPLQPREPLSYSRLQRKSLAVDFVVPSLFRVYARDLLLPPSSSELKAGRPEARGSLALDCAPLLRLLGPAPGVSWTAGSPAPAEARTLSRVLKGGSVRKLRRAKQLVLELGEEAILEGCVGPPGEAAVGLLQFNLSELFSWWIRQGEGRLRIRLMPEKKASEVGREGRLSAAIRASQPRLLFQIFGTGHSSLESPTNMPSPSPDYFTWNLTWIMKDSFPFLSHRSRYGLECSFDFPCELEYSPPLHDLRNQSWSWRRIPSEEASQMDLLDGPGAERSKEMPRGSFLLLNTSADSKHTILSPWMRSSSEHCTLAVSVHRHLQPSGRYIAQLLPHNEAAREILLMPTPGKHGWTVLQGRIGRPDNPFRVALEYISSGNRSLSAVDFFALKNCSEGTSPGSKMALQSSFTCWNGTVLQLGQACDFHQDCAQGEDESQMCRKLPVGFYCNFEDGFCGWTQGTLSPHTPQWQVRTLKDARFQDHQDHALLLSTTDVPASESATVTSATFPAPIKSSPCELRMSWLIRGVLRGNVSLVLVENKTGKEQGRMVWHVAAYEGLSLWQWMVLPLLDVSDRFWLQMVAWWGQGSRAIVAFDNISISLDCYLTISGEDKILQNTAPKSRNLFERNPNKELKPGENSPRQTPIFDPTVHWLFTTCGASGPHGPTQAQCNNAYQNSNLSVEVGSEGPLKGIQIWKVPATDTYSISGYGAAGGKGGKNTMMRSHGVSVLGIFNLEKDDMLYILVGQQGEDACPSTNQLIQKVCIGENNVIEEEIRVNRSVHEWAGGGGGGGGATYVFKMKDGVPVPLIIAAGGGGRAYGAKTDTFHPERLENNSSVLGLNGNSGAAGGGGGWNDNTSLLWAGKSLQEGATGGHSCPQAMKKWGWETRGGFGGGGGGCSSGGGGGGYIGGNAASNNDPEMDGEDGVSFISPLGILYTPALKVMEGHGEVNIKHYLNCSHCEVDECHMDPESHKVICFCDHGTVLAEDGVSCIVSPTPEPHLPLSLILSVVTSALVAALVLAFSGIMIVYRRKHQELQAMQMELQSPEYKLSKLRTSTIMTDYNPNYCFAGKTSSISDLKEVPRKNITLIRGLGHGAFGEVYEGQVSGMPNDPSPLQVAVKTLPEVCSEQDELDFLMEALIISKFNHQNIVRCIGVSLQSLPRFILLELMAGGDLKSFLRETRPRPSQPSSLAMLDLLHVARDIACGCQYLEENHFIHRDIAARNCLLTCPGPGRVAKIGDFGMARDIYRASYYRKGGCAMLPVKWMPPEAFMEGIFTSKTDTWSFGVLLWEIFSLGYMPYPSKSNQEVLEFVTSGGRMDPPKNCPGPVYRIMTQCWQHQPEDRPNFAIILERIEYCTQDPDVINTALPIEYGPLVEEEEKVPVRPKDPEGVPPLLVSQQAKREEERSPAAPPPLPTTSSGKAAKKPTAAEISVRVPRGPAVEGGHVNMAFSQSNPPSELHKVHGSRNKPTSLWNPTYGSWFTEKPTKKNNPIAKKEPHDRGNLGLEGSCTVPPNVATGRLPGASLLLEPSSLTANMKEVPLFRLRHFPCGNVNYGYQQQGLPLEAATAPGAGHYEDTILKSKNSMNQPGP

SMILES	duration of response (DOR) (ALK+ NSCLC; [5]) [months]	investigator-assessed confirmed ORR (ALK+ NSCLC; [5]) [%]	progression-free survival (PFS) (ALK+ NSCLC; [5]) [months]	PFS at 180 mg QD versus 90 mg QD (ALK+ NSCLC; pivotal phase 2 study, adults with ALK+ NSCLC)	relative bioavailability of oral solution, AUC higher in reference to the tablet ([1]; oral solution vs tablet, adults)	oral solution/tablet AUC ratio ([1]; relative bioavailability factor)	highest acceptably tolerated dose [2] [mg QD]	ALK inhibitor potency compared with crizotinib, ceritinib and alectinib (ALK)	activity against 17 secondary ALK mutants of EML4-ALK [3]	systemic exposure at MTD/RP2D higher than adult clinical exposures at 250 mg BID [4] [%]
COc1cc(N2CCC(N3CCN(C)CC3)CC2)ccc1Nc1ncc(Cl)c(Nc2ccccc2P(C)(C)=O)n1 [brigatinib, 5-chloro-N4-[2-(dimethylphosphoryl)phenyl]-N2-{2-methoxy-4-[4-(4-methylpiperazin-1-yl)piperidin-1-yl]phenyl}pyrimidine-2,4-diamine]	13.8	55.5	15.6	longer PFS at 180 mg QD	approximately 42%	1.42	240	more potent ALK inhibitor than crizotinib, ceritinib, and alectinib	maintain substantial activity against all 17 secondary ALK mutants	
C[C@@H](Oc1cc(-c2cnn(C3CCNCC3)c2)cnc1N)c1c(Cl)ccc(F)c1Cl [crizotinib]										~50
